Here are results for 20 compounds from PubChem BioAssay AID256 (DTP/NCI, 2004).

SMILES strings stand for the structures. “And” between values parts separate entries of the source, which are not always exact repeats. Equal values may be shown once. Inconclusive results and toxic doses are left out.

The experiment concerns CD2F1 mice, L1210 leukemia ip, survival T/C. Nature of the experiment: NCI In Vivo Anticancer Drug Screen. Data for tumor model L1210 Leukemia (intraperitoneal) in CD2F1 (CDF1) mice. As to conditions: higher = longer survival. The method in brief:
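Vehicle-treated tumor-bearing mice served as controls (C) for compound-treated mice (T). Reported figure is T divided by C.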

Setting [1] is: endpoint: mean survival time, dose: 100.0 mg/kg/injection, schedule: Q04DX003 (ip), vehicle: saline with Tween-80.
Where [2] appears, read: endpoint: mean survival time, dose: 400.0 mg/kg/injection, schedule: Q04DX003 (ip), vehicle: saline with Tween-80.
The mark [3] stands for this setting: endpoint: mean survival time, dose: 100.0 mg/kg/injection, schedule: Q01DX009 (ip), vehicle: saline with Tween-80.
The mark [4] stands for this setting: endpoint: mean survival time, dose: 200.0 mg/kg/injection, schedule: Q01DX009 (ip), vehicle: saline with Tween-80.
Setting [5] is: endpoint: mean survival time, dose: 200.0 mg/kg/injection, schedule: Q04DX003 (ip), vehicle: saline with Tween-80.
Setting [6] is: endpoint: mean survival time, dose: 400.0 mg/kg/injection, schedule: Q01DX009 (ip), vehicle: saline with Tween-80.
[7] abbreviates: endpoint: mean survival time, dose: 100.0 mg/kg/injection, schedule: Q04DX003 (ip), vehicle: Klucel (hydroxypropylcellulose) (HPC).
Where [8] appears, read: endpoint: mean survival time, dose: 200.0 mg/kg/injection, schedule: Q04DX003 (ip), vehicle: Klucel (hydroxypropylcellulose) (HPC).
Where [9] appears, read: endpoint: mean survival time, dose: 100.0 mg/kg/injection, schedule: Q01DX001 (ip), vehicle: saline with Tween-80.
[10] abbreviates: endpoint: mean survival time, dose: 200.0 mg/kg/injection, schedule: Q01DX001 (ip), vehicle: saline with Tween-80.
[11] abbreviates: endpoint: mean survival time, dose: 400.0 mg/kg/injection, schedule: Q01DX001 (ip), vehicle: saline with Tween-80.
Where [12] appears, read: endpoint: mean survival time, dose: 50.0 mg/kg/injection, schedule: Q01DX009 (ip), vehicle: saline with Tween-80.

`C[n+]1ccc(Nc2ccc(NC(=O)c3ccc(Nc4cc[n+](C)c5ccc([N+](=O)[O-])cc45)cc3[N+](=O)[O-])cc2)cc1`: the T/C runs as follows: (endpoint: mean survival time, dose: 79.0 mg/kg/injection, schedule: Q04DX003 (ip), vehicle: saline with Tween-80) 122 % of control; under setting [1], 113 % of control; (endpoint: mean survival time, dose: 178.0 mg/kg/injection, schedule: Q04DX003 (ip), vehicle: saline with Tween-80) 152 % of control; (endpoint: mean survival time, dose: 266.0 mg/kg/injection, schedule: Q04DX003 (ip), vehicle: saline with Tween-80) 177 % of control and 187 % of control.
`CCC(/C=C/C(C)C1CCC2C3CCC45CC4CCC5(C)C3CCC12C)C(C)C` (stereo not drawn): the T/C was 97 % of control under setting [1] and 87 % of control under setting [2].
Take `N#CC(C(=O)N1CCCC1)=C(S)S`: the T/C under setting [3] was 102 % of control; the T/C under setting [1] is 100 % of control; the T/C under setting [4] is 101 % of control; the T/C under setting [5] was 100 % of control; the T/C under setting [6] was 102 % of control; the T/C under setting [2] was 103 % of control.
With `CC(C)NC(=O)C1C2CCC(CC2)C1C(=O)NC(C)C` (stereo not drawn), the T/C under setting [1] is 98 % of control, the T/C under setting [5] is 98 % of control and the T/C under setting [2] was 95 % of control.
For the compound `O=c1[nH]n(Cc2ccccc2)c2ccccc12`, the T/C (endpoint: mean survival time, dose: 25.0 mg/kg/injection, schedule: Q04DX003 (ip), vehicle: Klucel (hydroxypropylcellulose) (HPC)) was 101 % of control; the T/C (endpoint: mean survival time, dose: 50.0 mg/kg/injection, schedule: Q04DX003 (ip), vehicle: Klucel (hydroxypropylcellulose) (HPC)) is 106 % of control; the T/C under setting [7] is 106 % of control.
Turning to `N#CCCOCCNCCSC(=O)c1ccccc1`, the T/C under setting [1] is 95 % of control, the T/C under setting [5] was 101 % of control and the T/C under setting [2] was 95 % of control.
Regarding `Nc1nc(=O)n(CCCOc2ccccc2NC(=O)Nc2cccc(S(=O)(=O)F)c2)cc1-c1ccc(Cl)c(Cl)c1`, the T/C is 95 % of control (endpoint: mean survival time, dose: 75.0 mg/kg/injection, schedule: Q01DX001 (ip), vehicle: saline with Tween-80); 95 % of control (endpoint: mean survival time, dose: 150.0 mg/kg/injection, schedule: Q01DX001 (ip), vehicle: saline with Tween-80); 101 % of control (endpoint: mean survival time, dose: 300.0 mg/kg/injection, schedule: Q01DX001 (ip), vehicle: saline with Tween-80).
Take `CC(=O)c1ccc(Cc2ccc(C(C)=O)cc2)cc1`: the T/C reads like this: under setting [7], 103 % of control; under setting [8], 98 % of control; (endpoint: mean survival time, dose: 400.0 mg/kg/injection, schedule: Q04DX003 (ip), vehicle: Klucel (hydroxypropylcellulose) (HPC)) 97 % of control.
For the compound `Cc1ccc(Sc2ccc([N+](=O)[O-])cc2)cc1`, the T/C by setting is: under setting [3], 96 % of control; under setting [1], 100 % of control; under setting [4], 102 % of control; under setting [5], 100 % of control; under setting [6], 96 % of control; under setting [2], 91 % of control.
`Nc1ccc(N)c(N)n1`: the T/C by setting is: (endpoint: mean survival time, dose: 6.25 mg/kg/injection, schedule: Q01DX009 (ip), vehicle: saline sonified) 105 % of control; (endpoint: mean survival time, dose: 12.5 mg/kg/injection, schedule: Q01DX009 (ip), vehicle: saline sonified) 96 % of control; (endpoint: mean survival time, dose: 25.0 mg/kg/injection, schedule: Q01DX009 (ip), vehicle: saline sonified) 108 % of control.
As for `CCOP(=O)(OCC)C1=C(SCC)C(F)(F)C(F)(F)C1(F)F`, where the note is “endpoint: mean survival time, dose: 75.0 mg/kg/injection, schedule: Q01DX001 (ip), vehicle: other”, the T/C was 104 % of control.
Take `Cc1ccccc1Nc1cc(=O)[nH]c(=O)[nH]1`: the T/C reads like this: under setting [9], 95 % of control; under setting [10], 95 % of control; under setting [11], 94 % of control.
`Cc1ccc(NC(=O)N2CCCCC2C)cc1[N+](=O)[O-]` (stereo not drawn): the T/C is, setting by setting: under setting [12], 102 % of control; under setting [3], 94 % of control; under setting [4], 102 % of control.
Take `O=S(c1ccc(O)cc1)c1ccc(O)cc1`: the T/C runs as follows: under setting [12], 90 % of control; under setting [3], 94 % of control.
As to `NC(N)=NC(=S)Nc1ccccc1`, the T/C reads like this: under setting [9], 118 % of control; under setting [10], 103 % of control; under setting [11], 118 % of control.
Regarding `CC#CCO`, the T/C runs as follows: under setting [3], 104 % of control; under setting [4], 98 % of control.
Consider `O=C1c2ccccc2C(=O)c2cc(N3C(=O)C=CC3=O)ccc21`, for which the T/C runs as follows: (endpoint: mean survival time, dose: 100.0 mg/kg/injection, schedule: Q01DX001 (ip), vehicle: saline) 97 % of control; (endpoint: mean survival time, dose: 200.0 mg/kg/injection, schedule: Q01DX001 (ip), vehicle: saline) 96 % of control.
As for `O=Cc1cc(Cl)c(O)c(Cl)c1`, the T/C is 94 % of control under setting [7] and 100 % of control under setting [8].
As for `O=C(O)c1cc([N+](=O)[O-])ccc1Br`, the T/C is 103 % of control under setting [1], 105 % of control under setting [5] and 95 % of control under setting [2].
Regarding `CCC1(O)CC2CN(CCc3c([nH]c4ccccc34)C(C(=O)OC)(c3cc4c(cc3OC)N(C)C3C(O)(C(=O)NCCSSCCNC(=O)C5(O)C(O)C6(CC)C=CCN7CCC8(c9cc(C%10(C(=O)OC)CC%11CN(CCc%12c%10[nH]c%10ccccc%12%10)CC(O)(CC)C%11)c(OC)cc9N(C)C58)C76)C(O)C5(CC)C=CCN6CCC43C65)C2)C1` (stereo not drawn), the T/C (endpoint: median survival time, dose: 1.08 mg/kg/injection, schedule: Q01DX009 (ip), vehicle: suspension in saline) is 111 % of control.
